Laboratory results from article PMC6368403, “Identification of a bilirubin receptor that may mediate a component of cholestatic itch” (eLife, 2019).
“And” between values parts separate entries of the source, which are not always exact repeats. Identical values can stand only once.

What was measured:
[1] = target: T1, MRGPRA1 (Mus musculus, UniProt Q91WW5); experiment: Ca2+ imaging and concentration-Ca2+ response (EC50) in HEK293 cells expressing MRGPRA1; assay type: cell-based; parameters: Ca2+ response: unit not given here; settings: for Ca2+ response (concentration-response curve): MRGPRA1, triplicate wells (Fig 2D); for Ca2+ response: bilirubin, 3 replicate columns
T1 construct: expressed in transfected cells
T1 sequence (Q91WW5 1-304): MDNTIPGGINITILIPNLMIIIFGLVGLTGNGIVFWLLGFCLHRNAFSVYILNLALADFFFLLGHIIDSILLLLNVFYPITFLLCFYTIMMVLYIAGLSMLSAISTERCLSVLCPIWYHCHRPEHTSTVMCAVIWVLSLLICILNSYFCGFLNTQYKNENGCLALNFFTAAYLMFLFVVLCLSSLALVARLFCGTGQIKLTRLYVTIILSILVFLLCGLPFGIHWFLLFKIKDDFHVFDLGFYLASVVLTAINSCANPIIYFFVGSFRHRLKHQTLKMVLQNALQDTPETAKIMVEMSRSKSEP
Method: (§1) All cultured cells were maintained in DMEM supplemented with 10% FBS and 1% Penicillin/Streptomycin at 37°C, 5% CO2. All data included were generated from cells tested for mycoplasma and found to be negative. Cells were imaged in calcium imaging buffer (CIB; 10 mM HEPES, 1.2 mM NaHCO3, 130 mM NaCl, 3 mM KCl, 2.5 mM CaCl2, 0.6 mM MgCl2, 20 mM glucose, and 20 mM sucrose at pH 7.4 and 290–300 mOsm). To monitor changes in intracellular [Ca^2+] ([Ca^2+]i), cells were loaded with either Fura 2-AM (HEK293 cells) or Fluo 4-AM (DRG neurons and mast cells) for 30 min in the dark at 37°C in CIB just prior to imaging. With Fura 2-AM, emission at 510 nm was monitored from excitation at both 340 nm and 380 nm. With Fluo 4-AM, emission at 520 nm was monitored from excitation at 488 nm. Cells were identified as responding if the intracellular [Ca^2+] rose by either 50% compared to baseline or 50% compared to the [Ca^2+]i change assayed during addition of 50 mM KCl (neurons only). Damaged, detached, high-baseline, and motion-activated cells were excluded from analysis.
(§2) In initial screens, HEK293 cells stably expressing the murine G-protein alpha-subunit Gα15, a unique Gα protein that non-selectively couples a large variety of GPCRs to phospholipase C ^30, were plated on poly-D-lysine-coated coverslips and transiently transfected with constructs encoding the MRGRPR of interest. 12–24 hr later, cells were loaded with the Fura 2-AM. Unless otherwise specified, compounds were perfused into the imaging chamber for approximately thirty seconds after a baseline period was established. Response was then monitored at 5 s intervals for an additional 60 s.
(§3) HEK293 cells stably expressing either MRGPRA1, MRGPRX4, and MRGRPC11 were seeded in poly-D-lysine-coated 96-well plates at 10,000 cells/well. Cells were loaded with Fura 2–AM, washed twice, and maintained in CIB. Haem metabolites were freshly dissolved in DMSO in dim light and then diluted into a buffer comprised of 20 mM Tris and 150 mM NaCl at pH 8.8. Potential changes in pH were evaluated prior to each experiment. EC50 values were determined from dose-responses performed in triplicate, repeated 2–4 times. To determine potential antagonism by QWF against bilirubin, cells were treated with varying doses of QWF for 1 min in CIB prior to application of agonist.
(§4) HEK293 stable cell lines expressing GFP-tagged MRGPRA3, MRGPRC11, MRGPRD, MRGPRX1, and MRGPRX2 were generated in previously described reports ([Liu et al., 2009]; [Liu et al., 2012]; [McNeil et al., 2015]). Briefly, plasmids containing the receptor of interest were transfected into HEK cells using Lipofectamine 3000. After 3 days, cells were then selected using 0.5 mg/mL G418. After 3 weeks, monoclonal colonies were established and each the highest expressing clones were identified. For this study, Mrgpra1 and MRGPRX4 were inserted into pEGFP-N1 and transfected into HEK293 cells. MRGPR-positive cells were selected using 0.5 mg/mL G418 for three weeks, after which GFP-positive cells were sorted by FACS and monoclonally expanded. Two lines expressing similar levels of MRGPRA1 and MRGPRX4, as measured by GFP fluorescence, were selected for study.

[2] = target: T2, MRGPRX4 (Homo sapiens, UniProt Q96LA9); experiment: Ca2+ imaging and concentration-Ca2+ response (EC50) in HEK293 cells expressing MRGPRX4; assay type: cell-based; settings: for Ca2+ response (concentration-response curve): MRGPRX4, triplicate wells (Fig 2I)
T2 construct: expressed in transfected cells
Method: as §1, §2, §3, §4

[3] = target: T1, MRGPRA1; experiment: Microscale thermophoresis binding to MRGPRA1; parameters: Transformed binding isotherm (mean of three experiments): unit not given here; settings: MRGPRA1 (Fig 2E)
Method: Binding isotherms for MRGPRA1, MRGPRX4, and MRGRPC11 towards various ligands were determined by microscale thermophoresis with the NanoTemper monolith NT.115 instrument ([Duhr and Braun, 2006]). Ligands were pre-incubated with 10 µM of the GFP-tagged receptor of interest for 5 min at room temperature in binding buffer (20 mM Tris and 150 mM NaCl at pH 8.8). Receptors were crudely purified as a membrane fraction from cells stably expressing the receptor ([Vasavda et al., 2017]). Haem metabolites were freshly dissolved in 0.1 M NaOH in dim light and then diluted into assay buffer. Lyophilized BAM8-22 was dissolved in binding buffer. The pH of each ligand was evaluated prior to incubation with a receptor. Samples were loaded into NT.115 Hydrophobic-Treated Capillaries from NanoTemper. Microscale thermophoretic experiments were executed using 20% LED power and 15% MST power. KDs were calculated using the law of mass action with data from three independent experiments. Binding between bilirubin and receptors was evaluated purely thermophoretically, whereas binding between BAM8-22 and MRGPRC11 was evaluated by T-Jump. Samples with dramatic deviations in initial fluorescence were excluded.

T2 sequence (Q96LA9 whole entry): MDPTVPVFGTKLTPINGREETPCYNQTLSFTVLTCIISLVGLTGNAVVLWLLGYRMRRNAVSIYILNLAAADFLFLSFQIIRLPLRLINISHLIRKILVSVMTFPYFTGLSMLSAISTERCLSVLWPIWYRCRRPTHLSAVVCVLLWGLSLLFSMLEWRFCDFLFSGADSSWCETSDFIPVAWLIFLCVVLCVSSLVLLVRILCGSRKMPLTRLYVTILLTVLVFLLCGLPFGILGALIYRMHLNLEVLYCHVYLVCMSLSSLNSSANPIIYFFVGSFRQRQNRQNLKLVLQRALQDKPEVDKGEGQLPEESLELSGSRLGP

Calcium response / activation of MRGPRA1-expressing cells ([1]; 50 µM bilirubin, 30 µM FMRF): exhibited a calcium response | Ca2+ response (concentration-response curve) ([1]; [Ligand] 3.90625e-6 M): 1.244 (2×) and 1.27 | Ca2+ response (concentration-response curve) ([1]; [Ligand] 7.8125e-6 M): 1.285 and 1.272 and 1.244 | Ca2+ response (concentration-response curve) ([1]; [Ligand] 1.5625e-5 M): 1.239 (2×) and 1.229 | Ca2+ response (concentration-response curve) ([1]; [Ligand] 3.125e-5 M): 1.214 and 1.216 and 1.186 | Ca2+ response (concentration-response curve) ([1]; [Ligand] 6.25e-5 M): 1.236 and 1.293 and 1.259 | Ca2+ response (concentration-response curve) ([1]; [Ligand] 0.000125 M): 1.409 and 1.368 and 1.342 | Ca2+ response (concentration-response curve) ([1]; [Ligand] 0.00025 M): 1.512 and 1.513 and 1.452 | Ca2+ response (concentration-response curve) ([1]; [Ligand] 0.0005 M): 1.582 and 1.563 and 1.522 | Ca2+ response ([1]; [Ligand] (M) -3 (log scale)): 92.1113 and 105.486 and 102.402 | Ca2+ response ([1]; [Ligand] (M) -3.30103 (log scale)): 69.422 and 70.1483 and 63.5847 | Ca2+ response ([1]; [Ligand] (M) -3.60206 (log scale)): 71.8089 and 75.8019 and 75.1545 | Ca2+ response ([1]; [Ligand] (M) -3.90309 (log scale)): 61.2591 and 54.8317 and 55.4389 | Ca2+ response ([1]; [Ligand] (M) -4.20412 (log scale)): 49.8998 and 18.4414 and 32.057 | Ca2+ response ([1]; [Ligand] (M) -4.50515 (log scale)): 6.418 and 7.051 and 1.245 | Ca2+ response ([1]; [Ligand] (M) -4.80618 (log scale)): 27.9538 and 0 (2×) | Ca2+ response ([1]; [Ligand] (M) -5.10721 (log scale)): 34.8054 and 0 (2×) | Calcium response / activation of MRGPRX4-expressing cells [2]: only MRGPRX4-expressing cells responded | Ca2+ response (concentration-response curve) ([2]; [Ligand] 1.95313e-6 M): 0.6657 and 0.5292 and 0.882 | Ca2+ response (concentration-response curve) ([2]; [Ligand] 3.90625e-6 M): 0.5596 and 0.9735 and 0.9102 | Ca2+ response (concentration-response curve) ([2]; [Ligand] 7.8125e-6 M): 0.7828 and 0.7465 and 0.8173 | Ca2+ response (concentration-response curve) ([2]; [Ligand] 1.5625e-5 M): 0.5886 and 0.7131 and 0.5739 | Ca2+ response (concentration-response curve) ([2]; [Ligand] 3.125e-5 M): 0.9259 and 0.9222 and 0.8162 | Ca2+ response (concentration-response curve) ([2]; [Ligand] 6.25e-5 M): 1.178 and 1.234 and 1.122 | Ca2+ response (concentration-response curve) ([2]; [Ligand] 0.000125 M): 1.451 and 1.464 and 1.382 | Ca2+ response (concentration-response curve) ([2]; [Ligand] 0.00025 M): 1.643 and 1.595 and 1.524 | Transformed binding isotherm (mean of three experiments) ([3]; [Ligand] 3.05e-8 M): 6.015 | Transformed binding isotherm (mean of three experiments) ([3]; [Ligand] 6.1e-8 M): 5.1124 | Transformed binding isotherm (mean of three experiments) ([3]; [Ligand] 1.221e-7 M): 3.41 | Transformed binding isotherm (mean of three experiments) ([3]; [Ligand] 2.441e-7 M): 3.271 | Transformed binding isotherm (mean of three experiments) ([3]; [Ligand] 4.883e-7 M): -3.226 | Transformed binding isotherm (mean of three experiments) ([3]; [Ligand] 9.766e-7 M): -3.391 | Transformed binding isotherm (mean of three experiments) ([3]; [Ligand] 1.9531e-6 M): 7.109 | Transformed binding isotherm (mean of three experiments) ([3]; [Ligand] 7.8125e-6 M): 1.334 | Transformed binding isotherm (mean of three experiments) ([3]; [Ligand] 1.5625e-5 M): 2.3419 | Transformed binding isotherm (mean of three experiments) ([3]; [Ligand] 3.125e-5 M): 16.9295 | Transformed binding isotherm (mean of three experiments) ([3]; [Ligand] 6.25e-5 M): 43.5974 | Transformed binding isotherm (mean of three experiments) ([3]; [Ligand] 0.000125 M): 64.6366 | Transformed binding isotherm (mean of three experiments) ([3]; [Ligand] 0.00025 M): 80.7081 | Transformed binding isotherm (mean of three experiments) ([3]; [Ligand] 0.0005 M): 102.789 | Transformed binding isotherm (mean of three experiments) ([3]; [Ligand] 0.001 M): 103.048
Structure (SMILES): C=CC1=C(C)/C(=C/c2[nH]c(Cc3[nH]c(/C=C4\NC(=O)C(C)=C4C=C)c(C)c3CCC(=O)O)c(CCC(=O)O)c2C)NC1=O [bilirubin, bilirubin IXα]
